Test systems include U251 CNS; NCI-H226 lung; HCT-15 colon; MDA-MB-435; MALME-3M melanoma; SF-295 CNS; PC-3 prostate; NCI-H460 lung; NCI-H522 lung; BT-549 breast.
Common to all, as to assay: DTP human tumour cell line panel, 48 h

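In this assay, cells in 96-well plates receive the compound at five concentrations for 48 hours. Endpoints are linearly interpolated between the surrounding concentrations. GI50 is the concentration that inhibits growth by half. TGI: total growth inhibition.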

As a reminder, the GI50 is the concentration at which growth is held to half of that of the control. What is called TGI is the concentration at which net growth stops. Low readings indicate greater sensitivity of the cells, high ones lower sensitivity of the cells. Consider `O=C(NCCNC(=O)c1ccc(F)cc1)Nc1ccc(-n2cc(-c3ccncc3)c(-c3ccc(Cl)c(O)c3)n2)cc1`, for which the GI50 with U251 CNS was 0.391 µM; with NCI-H226 lung, 0.809 µM; with HCT-15 colon it was 2.12 µM; with MDA-MB-435, 0.189 µM; in the assay on MALME-3M melanoma it was 0.714 µM; with SF-295 CNS, 0.354 µM. For the same compound, the GI50 in the assay on PC-3 prostate is 0.39 µM; in the assay with NCI-H460 lung, 0.329 µM; with NCI-H522 lung, 0.306 µM; with BT-549 breast, 0.338 µM. The TGI in the assay on U251 CNS turned out to be 2.64 µM; in the assay with NCI-H226 lung, 6.48 µM; in the assay with HCT-15 colon, 7 µM; in the assay on MDA-MB-435 it was 0.577 µM; in the assay on MALME-3M melanoma, 2.43 µM; with SF-295 CNS, 1.7 µM. Also, the concentration for total growth inhibition (TGI) was found to be 8.21 µM with PC-3 prostate, 10.5 µM in the assay on NCI-H460 lung, 2.94 µM in the assay on NCI-H522 lung and 2.91 µM with BT-549 breast.

Take `CC(=O)N1N=C(c2ccc(Nc3nc(Nc4ccc(F)cc4)nc(Nc4ccc(Cl)cc4)n3)cc2)CC1c1ccc(N(C)C)cc1` (stereo not given): the GI50 in the assay with U251 CNS was 4.2 µM; in the assay on NCI-H226 lung, 4.91 µM; in the assay with HCT-15 colon it was 2.64 µM; in the assay on MDA-MB-435 it was 5.68 µM; in the assay with MALME-3M melanoma, 4.78 µM; in the assay with SF-295 CNS, 9.73 µM. Also, the GI50 in the assay on PC-3 prostate is 3.18 µM; in the assay on NCI-H460 lung, 6.68 µM; with NCI-H522 lung it was 3.79 µM; with BT-549 breast it was 5.05 µM. Also, the TGI was 35.7 µM with U251 CNS; 28 µM with NCI-H226 lung; 30.5 µM in the assay with HCT-15 colon; 20.9 µM with MDA-MB-435; 23.8 µM in the assay with MALME-3M melanoma; 37.4 µM in the assay with SF-295 CNS. The TGI was more than 64.8 µM with PC-3 prostate, 45 µM in the assay with NCI-H460 lung, more than 58.3 µM in the assay with NCI-H522 lung and 17.5 µM in the assay on BT-549 breast.

Take `Oc1cc2c(cc1C(c1ccc3c(c1)OCO3)N1CCN(C(c3ccc4c(c3)OCO4)c3cc4c(cc3O)OCO4)CC1)OCO2` (stereo not given): the TGI in the assay with U251 CNS turned out to be 28.7 µM; with NCI-H226 lung it was 29.6 µM; with HCT-15 colon, 20.3 µM; with MDA-MB-435, 35 µM; with MALME-3M melanoma it was 38.9 µM; in the assay on SF-295 CNS it was 33.2 µM. The total growth inhibition concentration (TGI) was more than 100 µM in the assay with PC-3 prostate, more than 100 µM with NCI-H460 lung, 33.5 µM with NCI-H522 lung and 45.1 µM with BT-549 breast.

Regarding `NC(=S)N/N=C/c1ccc(OC(=O)COc2ccccc2)cn1`, the GI50 in the assay with U251 CNS was 4.15 µM; in the assay on NCI-H226 lung, 20.3 µM; with HCT-15 colon, 20.2 µM; with MDA-MB-435, 10.9 µM; in the assay on MALME-3M melanoma, 11.2 µM; with SF-295 CNS, 20.7 µM. The GI50 in the assay with PC-3 prostate was 5.34 µM; in the assay on NCI-H460 lung, 5.04 µM; in the assay with NCI-H522 lung it was 8.6 µM; in the assay with BT-549 breast it was 26.4 µM. The TGI was more than 100 µM in the assay on U251 CNS; 64 µM in the assay on NCI-H226 lung; more than 100 µM with HCT-15 colon; more than 100 µM in the assay with MDA-MB-435; more than 100 µM in the assay with MALME-3M melanoma; more than 100 µM in the assay with SF-295 CNS. In addition, the concentration for total growth inhibition (TGI) in the assay with PC-3 prostate was more than 100 µM; with NCI-H460 lung it was 63.4 µM; in the assay on NCI-H522 lung it was 57.2 µM; in the assay on BT-549 breast it was more than 100 µM.

Take `O=C(O)c1cc2cc(O)ccc2[nH]1`: the GI50 with U251 CNS, in the assay with NCI-H226 lung, in the assay on HCT-15 colon, with MDA-MB-435, in the assay on MALME-3M melanoma and in the assay with SF-295 CNS was more than 100 µM throughout. The GI50 in the assay with PC-3 prostate, in the assay on NCI-H460 lung, in the assay on NCI-H522 lung and in the assay with BT-549 breast was more than 100 µM in each case. Further, the total growth inhibition concentration (TGI) with U251 CNS, in the assay with NCI-H226 lung, with HCT-15 colon, in the assay on MDA-MB-435, in the assay with MALME-3M melanoma and in the assay with SF-295 CNS was more than 100 µM throughout. Also, the total growth inhibition concentration (TGI) with PC-3 prostate, in the assay with NCI-H460 lung, in the assay on NCI-H522 lung and with BT-549 breast was more than 100 µM throughout.

Consider `N#CSCC1CC(O)(c2ccccc2)CC(c2ccc(Cl)cc2)O1` (stereo not given), for which the GI50 is 2.64 µM in the assay on U251 CNS; 5.79 µM with NCI-H226 lung; 2.4 µM in the assay on HCT-15 colon; 1.9 µM with MDA-MB-435; 2.65 µM in the assay with MALME-3M melanoma; 3.28 µM in the assay with SF-295 CNS. Moreover, the GI50 in the assay with PC-3 prostate was 2.47 µM; in the assay with NCI-H460 lung it was 2.33 µM; with NCI-H522 lung it was 1.36 µM; with BT-549 breast it was 2.35 µM. In addition, the TGI in the assay with U251 CNS is 9.03 µM; in the assay with NCI-H226 lung it was 35.6 µM; in the assay with HCT-15 colon, 8.05 µM; in the assay with MDA-MB-435 it was 4.8 µM; in the assay with MALME-3M melanoma it was 7.35 µM; in the assay on SF-295 CNS, 12.7 µM. Moreover, the concentration for total growth inhibition (TGI) in the assay with PC-3 prostate turned out to be 7.49 µM; in the assay on NCI-H460 lung, 6.38 µM; in the assay with NCI-H522 lung, 2.83 µM; in the assay with BT-549 breast, 4.83 µM.

Consider `C[C@@H]1CC[C@@H]2[C@@H]1[C@H](OC(=O)c1ccc3ccccc3c1)[C@]1(C3CCCCC3)C[C@@H](OC(=O)CO)[C@@]2(C)O1`, for which the GI50 is 10.9 µM in the assay with U251 CNS; 11.6 µM in the assay on NCI-H226 lung; 7.93 µM with HCT-15 colon; 14.1 µM with MDA-MB-435; 16.5 µM in the assay on MALME-3M melanoma; 11.6 µM with SF-295 CNS. The GI50 with PC-3 prostate is 4.2 µM; in the assay on NCI-H460 lung, 9.27 µM; in the assay on NCI-H522 lung, 10.3 µM; in the assay on BT-549 breast it was 0.0714 µM. For the same compound, the TGI was found to be 23 µM with U251 CNS; 26.2 µM in the assay on NCI-H226 lung; 22.4 µM in the assay on HCT-15 colon; 29.4 µM with MDA-MB-435; 32.3 µM with MALME-3M melanoma; 25.3 µM with SF-295 CNS. The TGI with PC-3 prostate was 19.2 µM; in the assay with NCI-H460 lung, 23.7 µM; with NCI-H522 lung it was 24.1 µM; with BT-549 breast, 1.56 µM.

Regarding `Nc1cc(N)cc(Cc2ccccc2)c1`, the total growth inhibition concentration (TGI) in the assay with U251 CNS, with NCI-H226 lung, in the assay on HCT-15 colon, in the assay on MDA-MB-435, with MALME-3M melanoma and in the assay with SF-295 CNS was more than 100 µM throughout. The TGI in the assay with PC-3 prostate, in the assay with NCI-H460 lung, with NCI-H522 lung and in the assay on BT-549 breast was more than 100 µM in each case.

Source of the values: PubChem BioAssay (NCI).
